# Source: patent publication US9839642B2, “Beta-tetrazolyl-propionic acids as metallo-beta-lactamase inhibitors” (priority 2014, dated 2017)
# Where two headings read alike, the source gives them in different places.
# Columns and labels:
# [1] = target: NDM-1 (Klebsiella pneumoniae, UniProt C7C422); experiment: Enzyme activity: determination of IC50, fluorescence assay with CCF2-FA substrate; format: biochemical; conditions: CCF2-FA 1.25 μM, 2 hours at 25° C., read-out: NDM1 IC50
# Procedure, shortened: (§1)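 In pH 7 phosphate buffer (100 mM) with 10 μM ZnSO4 and 0.005% Tween-20, CCF2-FA substrate (1.25 μM final) was hydrolysed for 2 h at 25 °C by NDM-1, IMP-1 or VIM-1 at 1, 2 or 30 pM in the presence of inhibitor at 20–0.00063 μM. Emission 460 nm/excitation 405 nm; 4-parameter curve fit gave IC50.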
# [2] = target: VIM-1 (Pseudomonas aeruginosa, UniProt A0A0F7KYQ8); experiment: as above; format: biochemical; conditions: CCF2-FA 1.25 μM, 2 hours at 25° C., read-out: VIM1 IC50
# Procedure, shortened: as §1
# [3] = target: IMP-1 (Serratia marcescens, UniProt P52699); experiment: as above; format: biochemical; conditions: CCF2-FA 1.25 μM, 2 hours at 25° C., read-out: IMP1 IC50
# Procedure, shortened: as §1
# [4] = test system: Klebsiella pneumoniae expressing VIM-1 (IHMA599644); experiment: Antibiotic potentiation activity: synergistic concentration (MITC95) with imipenem, growth by OD600; format: cell-based
# Procedure, shortened: (§2)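 MITC95 = lowest inhibitor concentration giving 95% growth inhibition, read by absorbance after 22–24 h at 35° C. Compound range 200 μM to 0.195 μM, imipenem fixed at 1 or 4 μg/ml, bacteria in 1.1×CAMHB from saline suspension diluted 1:100.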
# [5] = test system: Serratia marcescens expressing IMP-1 (CL5741); experiment: as above; format: cell-based
# Procedure, shortened: as §2
# [6] = test system: Escherichia coli expressing NDM-1 (CLB30016); experiment: as above; format: cell-based
# Procedure, shortened: as §2
# [7] = 95% inhibition of bacterial growth, strain IHMA599644
# [8] = 95% inhibition of bacterial growth, strain CL5741
# [9] = 95% inhibition of bacterial growth, strain CLB30016
# [10] = K. pneumoniae IHMA599644 (VIM-1), 95% inhibition of growth
# [11] = S. marcescens CL5741 (IMP-1), 95% inhibition of growth
# [12] = E. coli CLB30016 (NDM-1), 95% inhibition of growth
# Sequence of NDM-1 (C7C422 29-270, looked up, species assumed): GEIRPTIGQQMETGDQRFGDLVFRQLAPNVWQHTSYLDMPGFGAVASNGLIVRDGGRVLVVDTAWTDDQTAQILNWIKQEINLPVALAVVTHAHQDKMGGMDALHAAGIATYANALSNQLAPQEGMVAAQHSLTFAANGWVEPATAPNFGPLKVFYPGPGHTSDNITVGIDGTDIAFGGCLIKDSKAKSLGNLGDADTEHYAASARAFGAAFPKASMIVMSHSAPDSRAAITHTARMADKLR
# Sequence of IMP-1 (P52699 19-246, looked up, species assumed): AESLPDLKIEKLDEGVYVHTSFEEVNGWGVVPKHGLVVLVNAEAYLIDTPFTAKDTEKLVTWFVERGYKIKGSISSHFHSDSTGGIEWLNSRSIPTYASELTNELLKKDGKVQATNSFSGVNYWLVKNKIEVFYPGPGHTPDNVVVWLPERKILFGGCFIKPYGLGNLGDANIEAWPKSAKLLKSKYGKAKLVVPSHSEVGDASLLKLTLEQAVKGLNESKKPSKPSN
Structure (SMILES),IC50 ([1]; enzyme 1 pM) [µM],IC50 ([2]; enzyme 30 pM) [µM],IC50 ([3]; enzyme 2 pM) [µM],"VIM1 KP599644 MITC95 [4, 7] [µM]","IMP1 SM5741 MITC95 [5, 8] [µM]","NDM1 EC30016 MITC95 [6, 9] [µM]",IC50 ([1]; NDM-1 enzyme 1 pM) [µM],IC50 ([2]; VIM-1 enzyme 30 pM) [µM],IC50 ([3]; IMP-1 enzyme 2 pM) [µM],"VIM1 KP599644 MITC95 [4, 10] [µM]","IMP1 SM5741 MITC95 [5, 11] [µM]","NDM1 EC30016 MITC95 [6, 12] [µM]"
"CCC[C@H](C(=O)O)[C@H](Cc1ccc(N2CCC[C@@H](N)C2)cc1)c1nn[nH]n1 [Example 229, (2S)-2-[(1S)-2-{4-[(3R)-3-aminopiperidin-1-yl]phenyl}-1-(2H-tetrazol-5-yl)ethyl]pentanoic acid]",0.37,0.025,1.2,25,25,12.5,,,,,,
"CCC[C@H](C(=O)O)[C@H](Cc1ccc(N2CCC[C@H](N)C2)cc1)c1nn[nH]n1 [Example 230, (2S)-2-[(1S)-2-{4-[(3S)-3-aminopiperidin-1-yl]phenyl}-1-(2H-tetrazol-5-yl)ethyl]pentanoic acid]",0.3,0.025,1.1,25,25,31,,,,,,
"CC(C)C[C@H](C(=O)O)[C@H](Cc1ccc(CN)c(F)c1)c1nnn[nH]1 [Example 56, (S)-2-((S)-2-(4-(aminomethyl)-3-fluorophenyl)-1-(1H-tetrazol-5-yl)ethyl)-4-methylpentanoic acid]",0.52,0.01,1.7,18.8,47,9.4,,,,,,
"CC(C[C@H](C(=O)O)[C@H](Cc1ccc(N)nc1)c1nnn[nH]1)c1ccccc1 (stereo partly drawn) [Example 404, (2S)-2-((S)-2-(6-aminopyridin-3-yl)-1-(1H-tetrazol-5-yl)ethyl)-4-phenylpentanoic acid]",,,,,,,0.228,0.0219,0.622,75,75,18.75
"CCC[C@H](C(=O)O)[C@H](Cc1ccc(C2CCN(C(=N)N)C2)nc1)c1nnn[nH]1 (stereo partly drawn) [Example 411, (2S)-2-((1S)-2-(6-(1-carbamimidoylpyrrolidin-3-yl)pyridin-3-yl)-1-(1H-tetrazol-5-yl)ethyl)pentanoic acid]",,,,,,,0.179,0.00296,2.77,12.5,50,4.688
"CC(C)(C)[C@H](C(=O)O)C(Cc1ccc(N)nc1)c1nnn[nH]1 (stereo partly drawn) [Example 420, (2R,3S)-4-(6-aminopyridin-3-yl)-2-(tert-butyl)-3-(1H-tetrazol-5-yl)butanoic acid]",,,,,,,0.0724,0.0192,0.0517,2.344,1.563,0.3906
"O=C(O)[C@@H](C1CCCC1)[C@H](Cc1ccc(C2CCNCC2)cc1)c1nnn[nH]1 [Example 80, 4-(4-((2S,3S)-3-carboxy-3-cyclopentyl-2-(1H-tetrazol-5-yl)propyl)phenyl)piperidine]",0.017,0.0022,0.073,9.4,1.6,6.2,,,,,,
"CCC[C@H](C(=O)O)[C@H](Cc1cccc(-c2ccc(N3CCNCC3)nc2)c1)c1nn[nH]n1 [Example 355, (2S)-2-[(1S)-2-[3-(6-piperazin-1-ylpyridin-3-yl)phenyl]-1-(2H-tetrazol-5-yl)ethyl]pentanoic acid]",,,,,,,0.021,0.0028,0.55,18.8,9.4,12.5
"CC(C)(C)[C@H](C(=O)O)[C@H](Cc1ccc(O)nc1)c1nnn[nH]1 [Example 421, (2R,3S)-2-(tert-butyl)-4-(6-hydroxypyridin-3-yl)-3-(1H-tetrazol-5-yl)butanoic acid]",,,,,,,0.157,0.0249,0.156,25,100,25
"CCC[C@H](C(=O)O)[C@H](Cc1cccc2nsnc12)c1nnn[nH]1 [Example 272, (2S)-2-[(1S)-2-(2,1,3-benzothiadiazol-4-yl)-1-(1H-tetrazol-5-yl)ethyl]pentanoic acid]",,,,,,,0.012,0.00035,0.6,9.4,38,4.7
